Data as given in US20080051401A1, “2,4,6-Trisubstituted Pyrimidines as Phosphotidylinositol (Pi) 3-Kinase Inhibitors and Their Use in the Treatment of Cancer” (priority 2004, published 2008).

Legend:
[1] = test system: phosphorylation of Serine 473 in Akt in MDA-MB-468 human breast adenocarcinoma cell line; experiment: In vitro phospho-Ser473 Akt assay, Test (b); assay type: cell-based; details: MDA-MB-468 cells, 2 hours incubation, read-out: IC50, inhibition of phosphorylation of Serine 473 in Akt
Protocol: (b) In Vitro Phospho-Ser473 Akt Assay
This assay determines the ability of test compounds to inhibit phosphorylation of Serine 473 in Akt as assessed using Acumen Explorer technology (Acumen Bioscience Limited), a plate reader that can be used to rapidly quantitate features of images generated by laser-scanning.
A MDA-MB-468 human breast adenocarcinoma cell line (LGC Promochem, Teddington, Middlesex, UK, Catalogue No. HTB-132) was routinely maintained at 37° C. with 5% CO2 up to a confluency of 70-90% in Dulbecco's modified Eagle's growth medium (DMEM; Invitrogen Limited, Paisley, UK Catalogue No. 41966-029) containing 10% heat-inactivated foetal calf serum (FCS; Sigma, Poole, Dorset, UK, Catalogue No. F0392) and 1% L-glutamine (Gibco, Catalogue No. 25030-024).
For the assay, the cells were detached from the culture flask using ‘Accutase’ (Innovative Cell Technologies Inc., San Diego, Calif., USA; Catalogue No. AT104) using standard tissue culture methods and resuspended in media to give 1.7×10^5 cells per ml. Aliquots (90 μl) were seeded into each of the inner 60 wells of a black Packard 96 well plate (PerkinElmer, Boston, Mass., USA; Catalogue No. 6005182) to give a density of ˜15000 cells per well. Aliquots (90 μl) of culture media were placed in the outer wells to prevent edge effects. The cells were incubated overnight at 37° C. with 5% CO2 to allow them to adhere.
On day 2, the cells were treated with test compounds and incubated for 2 hours at 37° C. with 5% CO2. Test compounds were prepared as 10mM stock solutions in DMSO and serially diluted as required with growth media to give a range of concentrations that were 10-fold the required final test concentrations. Aliquots (10 μl) of each compound dilution were placed in a well (in triplicate) to give the final required concentrations. […]
All subsequent aspiration and wash steps were carried out using a Tecan 96 well plate washer (aspiration speed 10 mm/sec). […] An aliquot of PBS (50 μl) was added to each well and the plates were sealed with black plate sealers and the fluorescence signal was detected and analysed. […]

p110α Type Ia human PI3K = target: T1, p110α Type Ia human PI3K (Homo sapiens, UniProt P42336); experiment: In vitro enzyme assay (AlphaScreen), Test (a); assay type: biochemical; details: recombinant enzyme, PI(4,5)P2 substrate, ATP 4 μM, read-out: IC50 versus p110α Type Ia human PI3K
T1 construct: full length DNA of each of the p110α, p110β and p110δ Type Ia human PI3K p110 isoforms; 6-His; made in house
Source text: (a) In Vitro Enzyme Assay
The assay used AlphaScreen technology (Gray et al., Analytical Biochemistry, 2003, 313: 234-245) to determine the ability of test compounds to inhibit phosphorylation by recombinant Type I PI3K enzymes of the lipid PI(4,5)P2.
DNA fragments encoding human PI3K catalytic and regulatory subunits were isolated from cDNA libraries using standard molecular biology and PCR cloning techniques. The selected DNA fragments were used to generate baculovirus expression vectors. In particular, full length DNA of each of the p110α, p110β and p110δ Type Ia human PI3K p110 isoforms (EMBL Accession Nos. HSU79143, S67334, Y10055 for p110α, p110β and p110δ respectively) were sub-cloned into a pDEST10 vector (Invitrogen Limited, Fountain drive, Paisley, UK). The vector is a Gateway-adapted version of Fastbac1 containing a 6-His epitope tag. A truncated form of Type Ib human PI3K p110γ isoform corresponding to amino acid residues 144-1102 (EMBL Accession No. X8336A) and the full length human p85α regulatory subunit (EMBL Accession No. HSP13KIN) were also sub-cloned into pFastBac1 vector containing a 6-His epitope tag. The Type Ia p110 constructs were co-expressed with the p85α regulatory subunit. Following expression in the baculovirus system using standard baculovirus expression techniques, expressed proteins were purified using the His epitope tag using standard purification techniques.
DNA corresponding to amino acids 263 to 380 of human Grp1 PH domain was isolated from a cDNA library using standard molecular biology and PCR cloning techniques. […]
Biotinylated-DiC8-PI(3,4,5)P3 (50 nM; Cell Signals Inc., Catalogue No. 107), recombinant purified GST-Grp1 PH protein (2.5 nM) and AlphaScreen Anti-GST donor and acceptor beads (100 ng; Packard Bioscience Limited, Station Road, Pangbourne, Berkshire, UK, Catalogue No. 6760603M) were added and the assay plates were left for about 5 to 20 hours at ambient temperature in the dark. The resultant signals arising from laser light excitation at 680 nm were read using a Packard AlphaQuest instrument. […]

[2] = test system: MDA-MB-468 human breast adenocarcinoma cell line; experiment: In vitro MDA-MB-468 human breast adenocarcinoma proliferation assay, Test (c); assay type: cell-based; details: BrdU incorporation, 48 hours incubation, read-out: IC50, inhibition of MDA-MB-468 cell growth
Source text: (c) In Vitro MDA-MB-468 Human Breast Adenocarcinoma Proliferation Assay
This assay determines the ability of test compounds to inhibit cell proliferation as assessed using Cellomics Arrayscan technology. A MDA-MB-468 human breast adenocarcinoma cell line (LGC Promochem, Catalogue No. HTB-132) was routinely maintained as described in Biological Assay (b) hereinbefore.
For the proliferation assay, the cells were detached from the culture flask using Accutase and seeded into the inner 60 wells of a black Packard 96 well plate at a density of 8000 cells per well in 100 μl of complete growth media. The outer wells contained 100 μl of sterile PBS. The cells were incubated overnight at 37° C. with 5% CO2 to allow them to adhere.
On day 2, the cells were treated with test compounds and incubated for 48 hours at 37° C. with 5% CO2. […]
BrdU incorporation was detected by incubation for 1 hour at ambient temperature with mouse anti-BrdU antibody (50 μl; Caltag, Burlingame, Calif., US; Catalogue No. MD5200) that was diluted 1:40 in PBS containing 1% BSA and 0.05% Tween-20. […] Subsequently, PBS (100 μl) was added to each well and the plates were analysed using a Cellomics array scan to assess total cell number and number of BrdU positive cells.
Fluorescence dose response data obtained with each compound were analysed and the degree of inhibition of MDA-MB-468 cell growth was expressed as an IC50 value.

T1 sequence (P42336 whole entry, canonical isoform): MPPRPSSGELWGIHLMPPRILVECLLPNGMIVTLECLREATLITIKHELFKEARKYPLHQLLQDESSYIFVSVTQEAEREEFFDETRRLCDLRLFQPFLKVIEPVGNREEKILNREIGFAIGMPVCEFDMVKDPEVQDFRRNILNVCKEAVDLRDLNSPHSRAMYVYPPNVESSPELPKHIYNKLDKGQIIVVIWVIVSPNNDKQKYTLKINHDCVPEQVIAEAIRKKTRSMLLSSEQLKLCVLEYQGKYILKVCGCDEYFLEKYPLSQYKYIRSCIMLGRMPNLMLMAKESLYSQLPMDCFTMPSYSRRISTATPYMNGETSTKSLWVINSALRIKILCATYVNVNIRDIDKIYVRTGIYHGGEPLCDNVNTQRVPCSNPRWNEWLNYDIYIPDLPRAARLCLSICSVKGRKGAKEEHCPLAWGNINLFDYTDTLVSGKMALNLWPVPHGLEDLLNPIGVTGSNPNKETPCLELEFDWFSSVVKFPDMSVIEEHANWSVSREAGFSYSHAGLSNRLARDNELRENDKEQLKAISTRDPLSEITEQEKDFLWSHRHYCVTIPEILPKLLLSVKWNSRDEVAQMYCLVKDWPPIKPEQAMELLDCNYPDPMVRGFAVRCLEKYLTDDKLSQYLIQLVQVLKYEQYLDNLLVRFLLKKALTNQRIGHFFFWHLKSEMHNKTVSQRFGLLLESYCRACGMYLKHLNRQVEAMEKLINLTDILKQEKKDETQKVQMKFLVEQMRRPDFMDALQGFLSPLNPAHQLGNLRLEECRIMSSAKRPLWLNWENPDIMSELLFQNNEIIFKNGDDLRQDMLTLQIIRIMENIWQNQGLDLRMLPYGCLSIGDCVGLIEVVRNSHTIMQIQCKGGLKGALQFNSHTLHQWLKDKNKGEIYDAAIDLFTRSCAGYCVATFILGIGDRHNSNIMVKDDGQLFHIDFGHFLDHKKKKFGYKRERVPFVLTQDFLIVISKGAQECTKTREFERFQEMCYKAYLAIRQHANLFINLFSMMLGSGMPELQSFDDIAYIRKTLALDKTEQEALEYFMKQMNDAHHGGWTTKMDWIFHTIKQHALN
T1 sequence (P27986 whole entry partner, canonical isoform): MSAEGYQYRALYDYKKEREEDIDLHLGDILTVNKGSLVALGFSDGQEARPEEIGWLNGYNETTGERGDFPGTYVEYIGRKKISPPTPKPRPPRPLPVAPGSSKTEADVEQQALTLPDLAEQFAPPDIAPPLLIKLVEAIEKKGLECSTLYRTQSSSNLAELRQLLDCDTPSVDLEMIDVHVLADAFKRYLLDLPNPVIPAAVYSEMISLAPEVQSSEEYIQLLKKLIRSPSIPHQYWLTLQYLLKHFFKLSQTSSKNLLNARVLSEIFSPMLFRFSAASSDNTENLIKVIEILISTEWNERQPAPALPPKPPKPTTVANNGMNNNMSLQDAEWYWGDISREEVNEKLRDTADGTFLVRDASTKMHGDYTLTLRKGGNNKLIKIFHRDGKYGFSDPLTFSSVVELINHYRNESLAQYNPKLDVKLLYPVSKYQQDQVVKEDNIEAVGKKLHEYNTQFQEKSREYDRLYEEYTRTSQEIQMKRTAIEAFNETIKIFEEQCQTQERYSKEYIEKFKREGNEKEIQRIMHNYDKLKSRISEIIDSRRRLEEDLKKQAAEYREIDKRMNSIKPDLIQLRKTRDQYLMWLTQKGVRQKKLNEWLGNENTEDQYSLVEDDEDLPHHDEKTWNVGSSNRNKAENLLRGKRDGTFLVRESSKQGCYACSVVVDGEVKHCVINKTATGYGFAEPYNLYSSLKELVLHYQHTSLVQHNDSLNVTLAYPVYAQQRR

| IC50 [1] [nM] | IC50 (p110α Type Ia human PI3K) [nM] | IC50 [2] [nM] | Compound |
| --- | --- | --- | --- |
| ~300 | ~100 | – | O=C(Nc1cccc(-c2cc(N3CCOCC3)nc(-c3cccc(O)c3)n2)c1)C1CCCNC1 (stereo not shown) [Example 6, 2-(3-hydroxyphenyl)-6-morpholino-4-(3-piperidin-3-ylcarbonylaminophenyl)pyrimidine] |
| ~5000 | ~100 | ~8000 | O=C(Nc1cccc(-c2cc(N3CCOCC3)nc(-c3cccc(CO)c3)n2)c1)C1CCNCC1 [Example 1, 2-(3-hydroxymethylphenyl)-6-morpholino-4-(3-piperidin-4-ylcarbonylaminophenyl)pyrimidine] |
| ~500 | ~300 | – | O=C(Nc1cccc(-c2cc(N3CCOCC3)nc(-c3cccc(CO)c3)n2)c1)N1CCNCC1 [Example 10, 2-(3-hydroxymethylphenyl)-6-morpholino-4-(3-piperazin-1-ylcarbonylaminophenyl)pyrimidine] |
